{"source": "patent US20050069544A1", "about": "“Pharmaceutical composition and a method of treatment” (priority 1998, published 2005)", "key": {"PBMC from AIHA patients": {"tested_on": "PBMC from AIHA patients", "experiment": "celELISA of cytokine production by PBMC from AIHA patients", "type": "cell-based, human", "settings": "AIHA patient (AIHA26); FIG. 24A", "experimental": "Cultured T-cells are stimulated with each of the epitopes given in Table 1 and after 5 days the responding cells were transferred to flat-bottomed microtitre plates (96-well Nunc-Immuno Maxisorp) coated with […] per well of monoclonal anti-cytokine capture antibody diluted in 0.05M alkaline carbonate coating buffer pH 9.6. Unbound capture antibody was removed by two washes with HBSS and non-specific binding potential blocked by incubation with 200 μl per well of phosphate buffered saline, pH 7.4 (PBS containing 3% BSA). […]\nAfter six washes with 0.5% Tween/PBS, 100 μl of 1:100,000 ExtrAvidin-alkaline phosphatase conjugate (Sigma) was then added to each of the wells and incubated at room temperature for 30 minutes. […] The absorbance at 405 nm was then measured using a Multiscan plate reader (Labsystems Basingstoke UK).\nCytokine secretion was measured by interpolation from a standard curve generated by incubating duplicate wells with doubling dilutions of recombinant human IFN-γ or IL-10 or TGF-β (Pharmingen). The standard curves were modelled by a smoothed cubic spline function applied to the absorbance reading and the cytokine concentrations after a quasilogarithmic transformation, where: quasiloge(z)=loge[z+{square root}[z^2+1]). […]"}, "[1]": {"tested_on": "CD3+ CD4+ T-helper cells of AIHA patients", "experiment": "Flow cytometry of CD3, CD4 and intracellular cytokines in PBMC from AIHA patients", "type": "cell-based, human", "settings": "AIHA patient; FIGS. 24B to 24E", "experimental": "The secretion of cytokines identified in Example 1.3 by T-helper cells is confirmed by flow cytometery analysis. Simultaneous measurement of surface molecules CD3 and CD4 and intracellular cytokines IFN-γ or IL-10 was carried out using three colour flow cytometry analysis in PBMC, isolated from RhD-alloimmunised donors, cultured with either no antigen or RhD peptide for five days after stimulation. All analysis was carried out using Expo v2 analysis software (applied Cytometry Systems). The CD3+ T-cells were gated open and the numbers of IFN-γ+ and CD4+ cells were assessed. In all donors tested there was a significant increase in the proportion of CD4+ IFN-γ+CD3+ T-cells to at least one of the RhD peptides tested. In the representative example shown in FIGS. 12A to 12L it can be seen that the proportion of CD4+ IFN-γ+cells was 4.2% in unstimulated cultures (FIG. 12E). […] The IL-10 and CD4+ expression was also assessed on CD3+ gated population of T-cells. In PBMC cultures isolated from the alloimmune donor shown, there was an increase in the proportion of CD4+ IL-10+T-cells from 2.4% in unstimulated PBMC cultures (FIG. 12I) to 6.5% in culture stimulated with RhD peptide 13 (FIG. 12J) to 6.2% in cultures stimulated with RhD peptide 17 (FIG. 12K) and 5.9% with RhD peptide 28 (FIG. 12L).\nThe secretion of cytokines identified in Example 2.3 by T-cells is confirmed utilising the experiments mentioned in Example 1.4, which were repeated using PBMC isolated from patients with AIHA."}}, "data": [{"sequence": "WMFWPSFNSALLRSP (Residue 217-231 RhD; listed as Homo sapiens) [compound 36]", "values": [{"measurement": "IL-10 production by PBMC", "setting": "PBMC from AIHA patients", "result": "induces the production of IL-10"}, {"measurement": "CD3+ CD4+ T helper cells expressing intracellular IL-10", "setting": "[1]", "result": "expansion of a CD3+ CD4+population of T helper cells"}]}]}
